This passage reports IC50 results from US12595261B2, “P2X3 and/or P2X2/3 receptor antagonist, pharmaceutical composition containing same, and use thereof” (BEIJING TIDE PHARMACEUTICAL CO., LTD., priority 2019, dated 2026).

The target of one assay is T1, Human P2X2/3 receptor (Homo sapiens, UniProt P56373+Q9UBL9).
T1 construct: expressed in transfected cells; host or cells: HEK293 (stably expressing)
T1 sequence (P56373 1-397): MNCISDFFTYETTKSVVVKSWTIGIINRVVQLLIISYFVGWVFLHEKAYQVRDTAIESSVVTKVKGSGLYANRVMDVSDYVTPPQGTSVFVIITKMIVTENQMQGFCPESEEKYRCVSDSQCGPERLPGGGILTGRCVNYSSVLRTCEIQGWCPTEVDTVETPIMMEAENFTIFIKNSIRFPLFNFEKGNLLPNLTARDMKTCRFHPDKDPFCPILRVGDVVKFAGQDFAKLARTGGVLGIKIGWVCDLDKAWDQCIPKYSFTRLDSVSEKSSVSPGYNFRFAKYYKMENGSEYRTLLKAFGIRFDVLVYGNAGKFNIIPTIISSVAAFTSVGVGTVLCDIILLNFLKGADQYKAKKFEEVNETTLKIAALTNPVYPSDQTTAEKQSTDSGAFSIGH
T1 sequence (Q9UBL9 1-471): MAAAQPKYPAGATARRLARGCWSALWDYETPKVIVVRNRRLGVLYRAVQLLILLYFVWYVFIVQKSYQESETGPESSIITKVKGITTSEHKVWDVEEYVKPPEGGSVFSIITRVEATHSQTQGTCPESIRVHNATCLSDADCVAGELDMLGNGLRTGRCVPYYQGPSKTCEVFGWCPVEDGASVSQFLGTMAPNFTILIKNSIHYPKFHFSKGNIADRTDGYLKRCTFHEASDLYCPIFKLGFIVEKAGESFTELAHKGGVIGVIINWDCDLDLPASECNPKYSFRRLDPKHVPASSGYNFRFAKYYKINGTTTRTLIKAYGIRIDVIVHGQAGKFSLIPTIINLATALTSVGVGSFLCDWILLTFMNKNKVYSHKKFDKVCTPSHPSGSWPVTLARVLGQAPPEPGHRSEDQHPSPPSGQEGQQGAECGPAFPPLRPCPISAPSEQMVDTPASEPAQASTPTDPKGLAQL
Kind of assay: Inhibitory activity on human P2X2/3 receptor (FLIPR calcium 6 assay, HEK293-P2X2/3 cells, agonist α,β-MeATP). Format: cell-based. The conditions noted are these: HEK293-P2X2/3 stably expressing cell line, FLIPR Tetra. How it is done: (§1) Biological Assay: Determination of the Inhibitory Activity of the Compounds on Human P2X3 and P2X2/3 Receptors
(§2) Cells were seeded into a poly-D-lysine-coated 384-well cell culture plate (Corning) at a density of 11,000 cells/well/25 μL of cell inoculation medium, and were cultured in a cell incubator overnight. On the day of the test, the calcium 6 dye was diluted to a 2× concentration with an assay buffer, 25 μL of the 2× calcium 6 dye was added to the 384-well cell culture plate, which was incubated at 37° C. for 2 hours, and then placed at room temperature for further use. The test compound and the agonist, α,β-MeATP were diluted to a 7× concentration with the assay buffer, 10 μL of the 7× test compound was added to the 384-well cell culture plate, which was incubated at room temperature for 15 minutes, and 10 μL of the 7× α,β-MeATP was transferred into the 384-well cell culture plate. […]

Another assay has as its target T2, Human P2X3 receptor (Homo sapiens, UniProt P56373).
T2 construct: expressed in transfected cells; host or cells: HEK293 (stably expressing)
T2 sequence (P56373 1-397): T1 sequence (P56373 1-397)
In words: Inhibitory activity on human P2X3 receptor (FLIPR calcium 6 assay, HEK293-P2X3 cells, agonist α,β-MeATP). Format: cell-based. The conditions noted are these: HEK293-P2X3 stably expressing cell line, FLIPR Tetra. How it is done: as §1, §2

As usually defined, the IC50 is the concentration that inhibits the measured activity by half. For `CC(C)c1cnc2c(c1Oc1cnc(N)nc1N)CCN2` [Compound C1, 5-((5-isopropyl-2,3-dihydro-1H-pyrrolo[2,3-b]pyridin-4-yl)oxy)pyrimidin-2,4-diamine], the concentration for half-maximal inhibition (IC50) on Human P2X2/3 receptor stood at 100 nM; on Human P2X3 receptor, 60.5 nM.
For `CC(C)c1cnc2[nH]ccc2c1Oc1cnc(N)nc1N` [Compound C4, 5-((5-isopropyl-1H-pyrrolo[2,3-b]pyridin-4-yl)oxy)pyrimidin-2,4-diamine] the same measures were 80 nM and 86 nM.
